Experimental data reported in patent publication US20250380696A1, “METHOD FOR CONTROLLING UNDESIRED PLANTS AND PROMOTING GROWTH OF USEFUL PLANTS” (ISHIHARA SANGYO KAISHA, LTD., priority 2022, published 2025).

Legend:
Type in all cases: in vivo
[1] = test system: goosegrass (Eleusine indica); assay: (10) Herbicidal effect test, pot, spray at 6.5 to 7.8 leaf stage; conditions: 13th day after spraying
From the text: [formula] • X: growth inhibition rate when treated with α (g/ha) of compound A, • Y: growth inhibition rate when treated with β (g/ha) of compound B, • E: growth inhibition rate expected when treated with α (g/ha) of compound A and β (g/ha) of compound B (expected value).
Upland soil was put in a 1/1,000,000 hectare pot, and seeds of goosegrass (Eleusine indica) were sown. When the goosegrass reached 6.5 to 7.8 leaf stage, a water-based suspension containing tiafenacil as the active ingredient, prepared by a conventional method for preparing a water-based suspension, and an emulsifiable concentrate containing S-metolachlor as the active ingredient (tradename: Dual Gold, manufactured by Syngenta), a wettable powder containing metribuzin as the active ingredient (tradename: SENCOR wettable powder, manufactured by Bayer Crop Science) or water dispersible granules containing pyroxasulfone as the active ingredient (tradename: Sakura, manufactured by Bayer Crop Science) were diluted with water (in an amount corresponding to 200 liter per hectare) containing 0.5 vol % of an agricultural spreader (tradename: Destiny HC, manufactured by Winfield Solutions, LLC.) and sprayed by a small spray gun (model: W-101-132G, manufactured by ANEST IWATA Corporation). On the 13th day after spraying, the state of growth of the goosegrass was visually observed, and the growth inhibition rate (%) was obtained in accordance with the evaluation standards described in the above (1) herbicidal effect test, and the results are shown in Table 10. Further, the expected value of the growth inhibition rate (%) was calculated in accordance with the Colby's formula described in the above (1) herbicidal effect test, and the results are also shown in Table 10.

[2] = test system: soybean (cultivar: Enrei); assay: (24) Plant growth promotion effect test (soybean), undesired plants not sown; conditions: 48th day after the sowing, above-ground part
From the text: Upland soil was put in a 1/500,000 hectare pot, and a water-based suspension containing tiafenacil as the active ingredient, prepared by a conventional method for preparing a water-based suspension, and an emulsifiable concentrate containing S-metolachlor as the active ingredient (tradename: Dual Gold, manufactured by Syngenta), a wettable powder containing metribuzin as the active ingredient (tradename: SENCOR wettable powder, manufactured by Bayer Crop Science), water dispersible granules containing pyroxasulfone as the active ingredient (tradename: Sakura, manufactured by Bayer Crop Science), a wettable powder containing tri-allate as the active ingredient, prepared by a conventional method for preparing a wettable powder, an emulsifiable concentrate containing pethoxamid as the active ingredient (tradename: Successor 600, manufactured by Stähler Suisse SA) or an emulsifiable concentrate containing dimethenamid-P as the active ingredient (tradename: Fieldstar P emulsifiable concentrate, manufactured by BASF) were diluted with water (in an amount corresponding to 200 liter per hectare) containing 0.5 vol % of an agricultural spreader (tradename: Destiny HC, manufactured by Winfield Solutions, LLC.) and sprayed by a small spray gun (model: W-101-132G, manufactured by ANEST IWATA Corporation). Seeds of soybean (cultivar: Enrei, manufactured by Asahi Noen Seed Co., Ltd.) were sown in the pot after spraying. On the 48th day after the sowing, the above-ground part of the soybean was reaped, and its weight was measured to obtain the total weight.

[3] = test system: wheat (cultivar: Norin 61); assay: (21) Plant growth promotion effect test (wheat), Italian ryegrass sown; conditions: 22nd day after the sowing, above-ground part
From the text: Upland soil was put in a 1/1,000,000 hectare pot, and seeds of Italian ryegrass (Lolium multiflorum) were sown. When the Italian ryegrass reached 3.3 to 3.8 leaf stage, a water-based suspension containing tiafenacil as the active ingredient, prepared by a conventional method for preparing a water-based suspension, and a wettable powder containing metribuzin as the active ingredient (tradename: SENCOR wettable powder, manufactured by Bayer Crop Science) or water dispersible granules containing pyroxasulfone as the active ingredient (tradename: Sakura, manufactured by Bayer Crop Science) were diluted with water (in an amount corresponding to 200 liter per hectare) containing 0.5 vol % of an agricultural spreader (tradename: Destiny HC, manufactured by Winfield Solutions, LLC.) and sprayed by a small spray gun (model: W-101-132G, manufactured by ANEST IWATA Corporation). Seeds of wheat (cultivar: Norin 61, manufactured by Asahi Noen Seed Co., Ltd.) were sown in the pot after spraying. On the 22nd day after the sowing, the above-ground part of the wheat was reaped, and its weight was measured to obtain the raw weight.

[4] = test system: soybean (cultivar: Enrei); assay: (23) Plant growth promotion effect test (soybean), Italian ryegrass sown, seed weight; conditions: 97th day after the sowing
From the text: Upland soil was put in a 1/200,000 hectare pot, and seeds of Italian ryegrass (Lolium multiflorum) were sown. When the Italian ryegrass reached 2.5 to 3.0 leaf stage, a water-based suspension containing tiafenacil as the active ingredient, prepared by a conventional method for preparing a water-based suspension, and an emulsifiable concentrate containing S-metolachlor as the active ingredient (tradename: Dual Gold, manufactured by Syngenta), a wettable powder containing metribuzin as the active ingredient (tradename: SENCOR wettable powder, manufactured by Bayer Crop Science), water dispersible granules containing pyroxasulfone as the active ingredient (tradename: Sakura, manufactured by Bayer Crop Science), a wettable powder containing tri-allate as the active ingredient, prepared by a conventional method for preparing a wettable powder, an emulsifiable concentrate containing pethoxamid as the active ingredient (tradename: Successor 600, manufactured by Stähler Suisse SA) or an emulsifiable concentrate containing dimethenamid-P as the active ingredient (tradename: Fieldstar P emulsifiable concentrate, manufactured by BASF) were diluted with water (in an amount corresponding to 200 liter per hectare) containing 0.5 vol % of an agricultural spreader (tradename: Destiny HC, manufactured by Winfield Solutions, LLC.) and sprayed by a small spray gun (model: W-101-132G, manufactured by ANEST IWATA Corporation). Seeds of soybean (cultivar: Enrei, manufactured by Asahi Noen Seed Co., Ltd.) were sown in the pot after spraying and the soybean was cultivated. On the 97th day after the sowing, seeds were collected from the grown soybean, and their weight was measured to obtain the total weight.

COC(=O)CCNC(=O)C(C)Sc1cc(-n2c(=O)cc(C(F)(F)F)n(C)c2=O)c(F)cc1Cl (stereo not drawn) [tiafenacil]
Growth inhibition rate (%) Measured value ([1]; Dose 6.25 g/ha): 30% | Raw weight (g) of soybean ([2]; Dose 3 g/ha): 28.3 g | Raw weight (g) of wheat ([3]; Dose 3 g/ha): 2.3 g | Total weight (g) of soybean seeds ([4]; Dose 12.5 g/ha): 14.3 g

CCOCCN(C(=O)CCl)C(=C(C)C)c1ccccc1 [pethoxamid]
Raw weight (g) of soybean ([2]; Dose 200 g/ha): 26.7 g | Total weight (g) of soybean seeds ([4]; Dose 750 g/ha): 11.0 g

COC[C@H](C)N(C(=O)CCl)c1c(C)csc1C [dimethenamid-P]
Raw weight (g) of soybean ([2]; Dose 150 g/ha): 28.9 g | Total weight (g) of soybean seeds ([4]; Dose 750 g/ha): 14.1 g

CSc1nnc(C(C)(C)C)c(=O)n1N [metribuzin]
inhibition at 9.38 g/ha ([1]; Eleusine indica, Dose 9.38 g/ha, read-out: Growth inhibition rate (%) Measured value): 7% | inhibition at 550 g/ha ([1]; Eleusine indica, Dose 550 g/ha, read-out: Growth inhibition rate (%) Measured value): 68% | inhibition at 1100 g/ha ([1]; Eleusine indica, Dose 1100 g/ha, read-out: Growth inhibition rate (%) Measured value): 72% | Raw weight (g) of soybean ([2]; Dose 150 g/ha): 16.1 g | Raw weight (g) of wheat ([3]; Dose 150 g/ha): 2.5 g | Total weight (g) of soybean seeds ([4]; Dose 18.75 g/ha): 14.2 g

CCc1cccc(C)c1N(C(=O)CCl)[C@@H](C)COC [S-metolachlor]
Growth inhibition rate (%) Measured value ([1]; Dose 7.5 g/ha): 7% | Growth inhibition rate (%) Measured value ([1]; Dose 375 g/ha): 7% | Growth inhibition rate (%) Measured value ([1]; Dose 750 g/ha): 7% | Raw weight (g) of soybean ([2]; Dose 75 g/ha): 27.1 g | Total weight (g) of soybean seeds ([4]; Dose 750 g/ha): 12.7 g

Cn1nc(C(F)(F)F)c(CS(=O)(=O)C2=NOC(C)(C)C2)c1OC(F)F [pyroxasulfone]
inhibition at 7.5 g/ha ([1]; Eleusine indica, Dose 7.5 g/ha, read-out: Growth inhibition rate (%) Measured value): 0% | inhibition at 250 g/ha ([1]; Eleusine indica, Dose 250 g/ha, read-out: Growth inhibition rate (%) Measured value): 2% | inhibition at 500 g/ha ([1]; Eleusine indica, Dose 500 g/ha, read-out: Growth inhibition rate (%) Measured value): 2% | Raw weight (g) of soybean ([2]; Dose 37.5 g/ha): 30.0 g | Raw weight (g) of wheat ([3]; Dose 37.5 g/ha): 1.2 g | Total weight (g) of soybean seeds ([4]; Dose 125 g/ha): 15.6 g

CC(C)N(C(=O)SCC(Cl)=C(Cl)Cl)C(C)C [tri-allate]
Raw weight (g) of soybean ([2]; Dose 200 g/ha): 18.2 g | Total weight (g) of soybean seeds ([4]; Dose 625 g/ha): 17.0 g
